From patent US20210292843A1, “TREATMENT OF DISEASES ASSOCIATED WITH ACTIVATED IRAK” (CHILDREN'S HOSPITAL MEDICAL CENTER, priority 2016, published 2021)

How the values were obtained:
Assay type in all cases: cell-based, human
[1] = test system: phospho-IRAK1, phospho-pIKK, and phospho-p65; assay: Immunoblotting of innate immune signaling after IRAK1/4 inhibitor treatment; conditions: S34F-U2AF1 K562 cells; IRAK1/4 inhibitor for 1 hour and 2 hours; immunoblot (FIG. 13A)
Protocol: Total protein lysates were obtained from cells by lysing the samples in cold RIPA buffer (50 mM Tris-HCl, 150 mM NaCl, 1 mM EDTA, 1% Triton X-100 and 0.1% SDS), in the presence of PMSF, sodium orthovanadate, protease and phosphatase inhibitors. Protein concentration was evaluated by a BCA assay (32106, Pierce, Rockford, Ill.). The bound proteins were separated by SDS-polyacrylamide gel electrophoresis, transferred to nitrocellulose membranes, and analyzed by immunoblotting. Western blot analysis was performed with the following antibodies: IRAK4 C-term (ab5985; Abcam, Cambridge, UK), IRAK N-term (4363; Cell Signaling Technology), GAPDH (5174; Cell Signaling Technology), Flag (F3165; Sigma, St. Louis, Mo.), IRAK1 (sc-7883; Santa Cruz, Dallas, Tex.), phospho-IRAK1 (T209) (A1074; AssaybioTech, Sunnyvale, Calif.), U2AF1 (ab86305; Abeam), IKKβ (2370; Cell Signaling Technology), phospho-IKKα/β (2697; Cell Signaling Technology), p38 MAPK (9212; Cell Signaling Technology), phopho-p38 MAPK (4631; Cell Signaling Technology), ERK (4695; Cell Signaling Technology), phospho-ERK (4377; Cell Signaling Technology), p65 (8242; Cell Signaling Technology) and phospho-p65 (3033; Cell Signaling Technology).
Doxycycline-inducible FLAG-tagged WT U2AF1 or FLAG-tagged mutant U2AF1(S34F) lentiviral expression plasmids have been previously described, and lentivirus was generated in 293T cells with the packaging plasmids pMD-G, pMD-Lg and REV. Concentrated virus (multiplicity of infection (MOI) of 3 for K562, MOI of 5 for OCI-AML3) was used to transduce K562 cells (ATCC, CCL243) or OCI-AML3 (DSMZ, ACC 582). […]
(§1) It was then investigated in whether or not there was a therapeutic opportunity in a subset of patients with increased IRAK4-Long expression, since expression of IRAK4-Long is associated with poor AML patient outcome (as described in Example 4, above). […] K562 WT- and S34F-U2AF1 were treated with DMSO or 10 uM IRAK1/4 inhibitor for 7 days, and cell viability was monitored by trypan blue exclusion. […]
(§2) Viability was measured by Trypan Blue staining. […] Colonies were counted after 7 days.

K562 S34F-U2AF1 cells [2] = assay: Clonogenic progenitor assay in methylcellulose; conditions: 10 uM inhibitor, colonies counted after 7 days, S34F-U2AF1 compared to WT-U2AF1 cells (FIG. 13C)
Excerpt: (§3) Doxycycline-inducible FLAG-tagged WT U2AF1 or FLAG-tagged mutant U2AF1(S34F) lentiviral expression plasmids have been previously described, and lentivirus was generated in 293T cells with the packaging plasmids pMD-G, pMD-Lg and REV. Concentrated virus (multiplicity of infection (MOI) of 3 for K562, MOI of 5 for OCI-AML3) was used to transduce K562 cells (ATCC, CCL243) or OCI-AML3 (DSMZ, ACC 582). Transduced cells (marked by green fluorescent protein) were isolated by flow cytometry cell sorting. Expression of mutant or WT U2AF1 was induced using the indicated concentrations of doxycycline hyclate (Sigma) in water. (Shirai C, et al., 2017)
Clonogenic progenitor frequencies were determined by plating 1×10^3 K562 cells/ml in methylcellulose (Methocult H4236; Stem Cell Technologies). Colonies were scored after 7 days.
as §1, §2

K562 S34F-U2AF1 cells [3] = assay: Growth curve, cell viability by trypan blue exclusion; conditions: 10 uM inhibitor vs DMSO, S34F-U2AF1 cells (FIG. 13B)
Excerpt: as §3
(§4) Trypan blue exclusion was measured using an automated cell counter (BioRad, Hercules, Calif., TC10). Cells were replenished with fresh media, doxycycline and drug every fifth day.
as §1, §2

K562 WT-U2AF1 cells = assay: as above; conditions: 10 uM inhibitor vs DMSO, 7 days, WT-U2AF1 cells (FIG. 13B)
Excerpt: as §3, §4, §1, §2

SMILES: O=C(Nc1nc2ccccc2n1CCN1CCOCC1)c1cccc([N+](=O)[O-])c1 [IRAK1/4 inhibitor]
- phospho-IRAK1 level [1]: returned to normal
- phospho-p65 level [1]: returned to normal
- phospho-pIKK level [1]: returned to normal
- colonies in methylcellulose (leukemic progenitor function) (K562 S34F-U2AF1 cells [2]): significantly fewer colonies
- cell viability / survival over 7 days (K562 S34F-U2AF1 cells [3]): significantly reduced survival
- decrease in proliferation and viability (K562 WT-U2AF1 cells): not seen
